Measurements reported in patent publication US20130029983A1, “AMINOTHIENOPYRIDAZINE INHIBITORS OF TAU ASSEMBLY” (priority 2009, published 2013).
Read-outs that look alike come from different tables or passages of the source.

How the values were obtained:
K18PL tau [1] = biological target: T1, K18PL tau (Homo sapiens, UniProt P10636, P618L); assay: Heparin-induced K18PL tau fibrillization assay monitored by ThT fluorescence; assay type: biochemical; details: for inhibition at 80 µM / Tau ThT Assay % Inhib.: highest tested concentration (80 μM); for inhibition at 80 µM: read-out: Tau ThT Assay % Inhib.; for Tau ThT Assay Log IC50 / IC50: logarithm of IC50, K18PL tau ThT fluorescence inhibition; for IC50: read-out: Tau ThT Assay Log IC50 (converted)
T1 construct: (K18PL; amino acids 244-369); made in house
Experimental: Tau fibril formation reactions were performed essentially as described (Crowe, A., Ballatore, C., Hyde, E., Trojanowski, J. Q., and Lee, V. M. Y. (2007) Biochemical and Biophysical Research Communications 358, 1-6). K18PL (2 μl of a 30 μM stock that also contained 0.24 μM Alexa Red-labeled K18PL) was dispensed into black 1536-well plates (Grenier) using a solenoid-based dispenser. Following transfer of 23 nL of test compound or DMSO vehicle by a pin tool from compound library plates, 2 μl/well of 40 μM heparin in reagent buffer was dispensed and the plate was centrifuged for 15 s at 1000 rpm in a table-top centrifuge. The fibrillization reaction proceeded for 6 hours at 37° C. in a humidified incubator (Kalypsys).
K18PL fibril formation was quantified with a ThT assay as previously described (Crowe, A., Ballatore, C., Hyde, E., Trojanowski, J. Q., and Lee, V. M. Y. (2007) Biochemical and Biophysical Research Communications 358, 1-6). Briefly, 1 μl/well of 62.5 μM ThT (Sigma) in 100 mM glycine, pH 8.5 (12.5 μM final concentration) was dispensed into 1536-well plates after completion of the fibrillization reaction and incubated at room temperature for 1 hour. Plates were read on an Envision fluorescence plate reader with an excitation of 450 nm and an emission setting of 510 nm.
Compound effects on tau assembly were determined for the ThT and FP assays using the formula 1−(Fcompound− FDMSO)/( Fcontrol− FDMSO), where Fcontrol denotes the median plate fluorescence values (ThT assay) or mP values (FP assay) of the non-fibrillizing K18 KD control wells, FDMSO denotes the median value of the DMSO control wells, and Fcompound denotes the compound well values. The resulting values were multiplied by 100 to obtain the percent inhibition of tau fibril formation.
(§1) The solubility of test compounds in the sodium acetate buffer used for subsequent fibrillization reactions was determined by turbidimetric measurements. Compounds were then evaluated in a heparin-induced tau assembly assay, in which the fibrillization of the truncated K18 tau fragment (comprised of four MT-binding repeats) bearing the P301L mutation (K18PL) found in FTDP-17, was monitored by thioflavine-T (ThT) binding and fluorescence (FIG. 3A). (Crowe, A.; et al., Identification of aminothienopyridazine inhibitors of tau assembly by quantitative high-throughput screening. Biochemistry 2009, 48, 7732-45.) The inhibitory activity of test compounds was then confirmed with an orthogonal sedimentation assay in which compound-treated fibrillizing mixtures were centrifuged and quantitation of K18PL tau in the soluble and insoluble fraction was performed by densitometric analyses of SDS-PAGE (FIG. 3B). […] Thus, the tau fibrillization assay was repeated in which both DMSO- and compound-treated mixtures were initially centrifuged for 30 min. prior to incubation (i.e., at time zero of the fibrillization reaction) to remove any pelletable material.

K18PL tau [2] = biological target: T1, K18PL tau; assay: K18PL tau centrifugation (sedimentation) assay, SDS-PAGE densitometry; assay type: biochemical; details: K18PL tau centrifugation assay
Experimental: The determination of compound-induced effects on the amount of tau that remains soluble upon centrifugation, and EM visualization of tau species following incubation with test compounds, were as previously described (Crowe, A., Ballatore, C., Hyde, E., Trojanowski, J. Q., and Lee, V. M. Y. (2007) Biochemical and Biophysical Research Communications 358, 1-6).
as §1

T1 sequence (P10636 561-686 P618L): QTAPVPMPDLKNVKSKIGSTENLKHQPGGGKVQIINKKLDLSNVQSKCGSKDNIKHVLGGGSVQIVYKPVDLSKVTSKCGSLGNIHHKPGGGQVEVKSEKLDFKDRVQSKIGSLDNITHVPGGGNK

| Structure (SMILES) | inhibition at 80 µM (K18PL tau [1]; Table 4) | Tau ThT Assay Log IC50 (K18PL tau [1]; Table 4) | Tau Cent. Assay % Soluble (K18PL tau [2]; Table 4) | IC50 (K18PL tau [1]; Table 4) | also measured |
| --- | --- | --- | --- | --- | --- |
| CC(C)NC(=O)c1nn(-c2ccc(O)cc2)c(=O)c2c(N)scc12 [CNDR-51376, 5-Amino-3-(4-hydroxyphenyl)-N-isopropyl-4-oxo-3,4-dihydrothieno[3,4-d]pyridazine-1-carboxamide] | 86% | −4.8 | 84% | – | – |
| CCOC(=O)c1nn(-c2ccc(Cl)cc2)c(=O)c2c(N)sc(Cl)c12 [CNDR-51393, Ethyl 5-amino-7-chloro-3-(4-chlorophenyl)-4-oxo-3,4-dihydrothieno[3,4-d]pyridazine-1-carboxylate] | 88% | −5.7 | 65% | – | – |
| Nc1scc2c(C(=O)NC3CC3)nn(-c3ccc(F)cc3)c(=O)c12 [CNDR-51397, 5-Amino-N-cyclopropyl-3-(4-fluorophenyl)-4-oxo-3,4-dihydrothieno[3,4-d]pyridazine-1-carboxamide] | 88% | −5.6 | 78% | – | – |
| CCOC(=O)c1nn(-c2ccc(N)cc2)c(=O)c2c(N)scc12 [CNDR-51355, Ethyl 5-amino-3-(4-aminophenyl)-4-oxo-3,4-dihydrothieno[3,4-d]pyridazine-1-carboxylate] | 74% | – | 67% | 1.26 µM | – |
| CCOC(=O)c1nn(-c2ccccc2Cl)c(=O)c2c(N)scc12 [CNDR-51425, Ethyl 5-amino-3-(2-chlorophenyl)-4-oxo-3,4-dihydrothieno[3,4-d]pyridazine-1-carboxylate] | 87% | – | 61% | 5.01 µM | – |
| CCOC(=O)c1nn(-c2ccc(C(F)(F)F)cc2)c(=O)c2c(N)scc12 [CNDR-51373, Ethyl 5-amino-4-oxo-3-(4-(trifluoromethyl)phenyl)-3,4-dihydrothieno[3,4-d]pyridazine-1-carboxylate] | 48% | – | 27% | 10 µM | – |
| COC(=O)c1nn(-c2cccc(C(F)(F)F)c2)c(=O)c2c(N)scc12 [Compound 19] | – | – | – | – | inhibition at 80 µM (K18PL tau [1]; Table 3): 66%; IC50 (K18PL tau [1]; Table 3, NC = not calculated due to insufficient activity): 10 µM; Tau Cent. Assay % Soluble (K18PL tau [2]; Table 3): 41% |
| CCOC(=O)c1nn(-c2cccc(Cl)c2)c(=O)c2c(N)scc12 [CNDR-51387] | – | −5.7 | 71% | – | Tau ThT Assay % Inhib. (K18PL tau [1]; Table 4): 90% |
| CCOC(=O)c1nn(-c2ccc(C)cc2C)c(=O)c2c(N)scc12 [CNDR-51434] | – | −5.7 | 56% | – | Tau ThT Assay % Inhib. (K18PL tau [1]; Table 4): 87% |
| Cc1nn(-c2ccc(Cl)cc2)c(=O)c2c(N)scc12 [CNDR-51400] | – | −5.9 | 90% | – | Tau ThT Assay % Inhib. (K18PL tau [1]; Table 4): 87% |
| CCOC(=O)c1nn(-c2ccc([N+](=O)[O-])cc2)c(=O)c2c(N)scc12 [CNDR-51352, Ethyl 5-amino-3-(4-nitrophenyl)-4-oxo-3,4-dihydrothieno[3,4-d]pyridazine-1-carboxylate] | 69% | – | 59% | 50.1 µM | – |
| NNC(=O)c1nn(-c2ccc(Cl)cc2)c(=O)c2c(N)scc12 [CNDR-51378, 5-Amino-3-(4-chlorophenyl)-4-oxo-3,4-dihydrothieno[3,4-d]pyridazine-1-carbohydrazide] | 93% | – | 77% | 3.16 µM | – |
| CCOC(=O)c1nn(-c2ccccc2F)c(=O)c2c(N)scc12 [CNDR-51439, Ethyl 5-amino-3-(2-fluorophenyl)-4-oxo-3,4-dihydrothieno[3,4-d]pyridazine-1-carboxylate] | 48% | – | 41% | 0.794 µM | – |
| Nc1scc2c(C(=O)O)nn(-c3ccc(OC(F)(F)F)cc3)c(=O)c12 [CNDR-51370, 5-Amino-4-oxo-3-(4-(trifluoromethoxy)phenyl)-3,4-dihydrothieno[3,4-d]pyridazine-1-carboxylic acid] | 88% | – | 65% | 6.31 µM | – |
| CCOC(=O)c1nn(-c2ccc(Cl)cc2)c(=O)c2c(NC)scc12 [CNDR-51360, Ethyl 3-(4-chlorophenyl)-5-(methylamino)-4-oxo-3,4-dihydrothieno[3,4-d]pyridazine-1-carboxylate] | 39% | – | 51% | 5.01 µM | – |
| CCOC(=O)c1nn(-c2ccc(OC)cc2)c(=O)c2c(NC(=O)Cc3ccccc3)scc12 [Compound 9a] | – | – | – | – | Tau ThT Assay % Inhib. (K18PL tau [1]; Table 3): 31%; Tau Cent. Assay % Soluble (K18PL tau [2]; Table 3): 0% |
| CCOC(=O)c1nn(-c2ccc(OC(F)(F)F)cc2)c(=O)c2c(N)scc12 [CNDR-51369, Ethyl 5-amino-4-oxo-3-(4-(trifluoromethoxy)phenyl)-3,4-dihydrothieno[3,4-d]pyridazine-1-carboxylate] | 41% | – | 29% | 2 µM | – |
| Nc1scc2c(C(=O)O)nn(-c3ccc(F)cc3)c(=O)c12 [CNDR-51395, 5-Amino-3-(4-fluorophenyl)-4-oxo-3,4-dihydrothieno[3,4-d]pyridazine-1-carboxylic acid] | 84% | −5.7 | 83% | – | – |
| CC(C)NC(=O)c1nn(-c2ccc(F)cc2)c(=O)c2c(N)scc12 [CNDR-51396, 5-Amino-3-(4-fluorophenyl)-N-isopropyl-4-oxo-3,4-dihydrothieno[3,4-d]pyridazine-1-carboxamide] | 89% | −5.8 | 77% | – | – |
| Nc1scc2c(C(=O)O)nn(-c3ccc(O)cc3)c(=O)c12 [CNDR-51374, 5-Amino-3-(4-hydroxyphenyl)-4-oxo-3,4-dihydrothieno[3,4-d]pyridazine-1-carboxylic acid] | 84% | −5.4 | 70% | – | – |
| CCOC(=O)c1nn(-c2ccc(Cl)cc2)c(=O)c2c(N)sc(Br)c12 [CNDR-51411, Ethyl 5-amino-7-bromo-3-(4-chlorophenyl)-4-oxo-3,4-dihydrothieno[3,4-d]pyridazine-1-carboxylate] | 92% | −5.4 | 62% | – | – |
| CCOC(=O)c1nn(-c2ccc(F)cc2)c(=O)c2c(N)scc12 [CNDR-51394, Ethyl 5-amino-3-(4-fluorophenyl)-4-oxo-3,4-dihydrothieno[3,4-d]pyridazine-1-carboxylate] | 77% | −6.0 | 63% | – | – |
| Nc1scc2c(-c3ccccc3)nn(-c3ccc(Cl)cc3)c(=O)c12 [CNDR-51405] | – | −6.0 | 44% | – | Tau ThT Assay % Inhib. (K18PL tau [1]; Table 4): 85% |
| CCN(CC)C(=O)c1nn(-c2ccc(OC)cc2)c(=O)c2c(N)scc12 [CNDR-51443, 5-Amino-N,N-diethyl-3-(4-methoxyphenyl)-4-oxo-3,4-dihydrothieno[3,4-d]pyridazine-1-carboxamide] | 75% | – | 59% | 7.94 µM | – |
| CCOC(=O)c1nn(-c2ccccc2C)c(=O)c2c(N)scc12 [CNDR-51424, Ethyl 5-amino-4-oxo-3-(o-tolyl)-3,4-dihydrothieno[3,4-d]pyridazine-1-carboxylate] | 82% | – | 58% | 1.26 µM | – |
